Reference: patent US20250100962A1 (CITY OF HOPE, priority 2023, published 2025)

Test system: CLOCK/Bmal1-mediated transcription
Test: Luciferase assay: 293A cells transfected with Bmal1 and CLOCK, Period2-driven luciferase reporter
Type: cell-based
Conditions: 0.2 μM for 6 hours, Per2-luciferase reporter
Description: Cells were seeded at 4×10^5 concentration on 24 well plates. The seeding density was decided after trying several densities and choosing the one that after 24 h lead to 90% confluence. At 90% confluence cell transfection was performed using Opti-MEMTM Reduced Serum Medium (Gibco-Thermo Fisher CN:31985062) with PGL2, PRL, pcDNA3.0-BMAL1-His, PcDNA3.0-6×Myc-CLOCK (AddGene CN: 47334) pcDNA3.0-3×FLAG-cry2 plasmids and PEI max 40 k (Polysciences Inc CN: 24765-1). After 24 h of transfection, cells were treated with desired compounds and controls in 10% FBS 1% PSG DMEM media for desired times. Cells were extracted with 1×PLB provided in the Dual-Luciferase® Reporter Assay Kit (Promega CN: E1910) and transferred to 96-well black plate to be treated with LARII and Stop & Glo components according to protocol of the Dual-Luciferase® Reporter Assay Kit (Promega CN: E1910). Luminescence was measured on microplate (ELISA) reader (TECAN infinite […]). The mean and standard deviation values were calculated for each well and graphed.

[H]/N=C(\N/C(=N/[H])NCCCCCCNC(=N)NC(=N)Nc1ccc(Cl)cc1)Nc1ccc(Cl)cc1 [CHX, chlorhexidine]
induction of CLOCK/Bmal1-activated transcription: ~26%
